Legend:
ARP-1 = experiment: Viable cells, multiple myeloma ARP-1; format: cell-based, human; settings: 24 hours
Protocol: (§1) Viable and metabolically active cells were assayed using CellTiter-Blue (Promega) or PrestoBlue (Invitrogen) following manufacturer's instruction. In a 96 well plate format, 15×10^3 cells were pretreated with 0.1% Vehicle or increasing concentration of inhibitors as noted (for 16 h, 24 h, 48 h, and/or 72 hr) and fluorescence was detected on the SpectraMax M2e (Molecular Devices) after 30 min incubation with dye.

His-6Skp1-Skp2-Cks1 = target: T1, His-6Skp1-Skp2-Cks1 (Homo sapiens, UniProt P61024+Q13309); experiment: Differential scanning fluorimetry (protein melt); format: binding; settings: compound 75 μM; protein 1.5 μM
T1 construct: His6-tagged human Skp2 (residues 89-424); Human full-length Cks1 was produced as described; made in house
T1 sequence (Q13309 89-424 limits assumed): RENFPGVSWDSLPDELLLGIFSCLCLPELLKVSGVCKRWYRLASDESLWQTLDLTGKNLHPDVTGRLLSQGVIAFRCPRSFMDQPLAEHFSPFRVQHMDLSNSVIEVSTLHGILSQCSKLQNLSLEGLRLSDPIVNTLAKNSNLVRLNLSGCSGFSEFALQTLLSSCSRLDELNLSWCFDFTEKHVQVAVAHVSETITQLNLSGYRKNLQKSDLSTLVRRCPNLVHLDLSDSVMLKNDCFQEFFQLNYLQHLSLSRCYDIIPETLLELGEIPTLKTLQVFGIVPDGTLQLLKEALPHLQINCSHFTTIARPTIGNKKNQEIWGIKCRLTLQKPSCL
T1 sequence (P61024 whole entry, the tested form may be a part): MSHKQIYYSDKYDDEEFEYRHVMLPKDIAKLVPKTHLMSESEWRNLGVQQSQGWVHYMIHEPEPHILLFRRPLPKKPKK
Protocol: Protein melt assays were carried out following the manufacturer's protocol on the LightCycler 480 System II (Roche) using Sypro Orange dye (Sigma). Fluorescence (465 nm excitation/580 nm detection) was acquired (10 data points/sec) at a ramp rate of 0.06° C./sec between 20° C. and 85° C. Melting temperatures were calculated using the LightCycler 480 Protein Melt analysis tool (Roche).

KSM-11 = experiment: Viable cells, multiple myeloma KSM-11; format: cell-based, human; settings: 24 hours
Protocol: as §1

MCF-7 = experiment: Viable and metabolically active cells, MCF-7; format: cell-based, human; settings: 16 h
Protocol: as §1

p27 in ECC-1 cells = experiment: Cycloheximide p27 half-life in ECC-1 cells; format: cell-based, human; settings: 18 h treatment, 20 μM CHX chase, control 3.2 h
Protocol: The endometrial carcinoma cell line (derived from a well-differentiated endometrioid Type I ECA) ECC-1 cells (ATCC, Manassas, Va.) were plated at a density of 3×10^5/well/6-well plate and grown in DMEM:F12 supplemented with 10% FBS (BioWest, Ocala, Fla.). The cell line was passaged in the laboratory for fewer than 6 months after receipt. […] The protocol was approved by The Institutional Review Board of NYU, informed consent was obtained, and the samples were identified and graded by two surgical pathologists and graded according to the WHO (I-III) for decreased glandular structure and nuclear atypia (Silverberg, “Hyperplasia and Carcinoma of the Endometrium,” Semin. Diagn. Pathol. 5:135-153 (1988), which is hereby incorporated by reference in its entirety). ECAs were plated at a density of 2.2×10^6 cells/6-well Primaria® plates (BD Biosciences, San Jose, Calif.) in McCoys 5A media without phenol red containing 10% charcoal-stripped FBS, 2 mM L-Glutamine (Invitrogen) and antimycotic antibiotic solution (Mediatech, Hendon, Va.). ECC-1 cells and primary ECA cells were grown to 70-80% confluence, synchronized in serum-free media for 24 h, treated with 10 […] Skp2E3LIs for 18 h or as indicated in the figures. […] Whole cell lysates were collected at increasing time points (0, 2, 4, 6 h) and 20 μg protein/well analyzed for p27 by immunoblotting.

LNCaP = experiment: Cell cycle FACS analysis, LNCaP; format: cell-based, human; settings: 10 μM for 16 hours
Protocol: Whole cell extracts were prepared and immunoblotted as previously described Dorrello et al., “S6K1- and betaTRCP-mediated Degradation of PDCD4 Promotes Protein Translation and Cell Growth,” Science 314:467-471 (2006), which is hereby incorporated by reference in its entirety. For knockdown of Skp2 or p27, shRNAs were induced with 2 ng/ml doxycycline for 48 hours, with the last 16 hours co-treated with 0.1% Vehicle or 10 μM inhibitors as indicated. For cycloheximide chase, cells were pretreated 16 h with 0.1% Vehicle or 10 μM inhibitors, followed by 20 ng/ml cycloheximide (Sigma) and whole cell extracts collected for each time point. Scanning densitometry was performed on immunoblots using Image J software. For cell cycle analysis, cells were treated with 0.1% Vehicle or 10 μM inhibitors for 16 h. 1×10^6 cells were fixed in 70% ethanol for 2 h, treated with 200 μg/ml RNase A (Invitrogen) for 30 minutes, and stained with 20 μg/ml Propidium Iodine (Sigma). All samples were assayed in triplicates. Signal was detected using the Becton Dickson LSRII flow cytometer and cell cycle profiles were analyzed with FloJo.

p27 in 501 Mel cells = experiment: Cycloheximide p27 half-life in 501 Mel cells; format: cell-based, human; settings: pretreated 16 hours with 10 μM inhibitor, vehicle half-life 1 hour
Protocol: To assess the mechanism of p27 induction, cycloheximide half-lives were analyzed in 501 Mel cell lines pretreated with each inhibitor (10 μM) or 0.1% DMSO (vehicle). p27 degraded rapidly with a half-life of 1 hour with vehicle, and this rate was slowed by the inhibitors (FIG. 4C). […] Protein levels of Skp2 and Skp1 remained constant.
Whole cell extracts were prepared and immunoblotted as previously described Dorrello et al., “S6K1- and betaTRCP-mediated Degradation of PDCD4 Promotes Protein Translation and Cell Growth,” Science 314:467-471 (2006), which is hereby incorporated by reference in its entirety. For knockdown of Skp2 or p27, shRNAs were induced with 2 ng/ml doxycycline for 48 hours, with the last 16 hours co-treated with 0.1% Vehicle or 10 μM inhibitors as indicated. For cycloheximide chase, cells were pretreated 16 h with 0.1% Vehicle or 10 μM inhibitors, followed by 20 ng/ml cycloheximide (Sigma) and whole cell extracts collected for each time point. 20 ng/ml cycloheximide (Sigma) was added to each plate and whole cell extract was collected for each time point. Scanning densitometry was performed on immunoblots using Image J software. For cell cycle analysis, cells were treated with 0.1% Vehicle or 10 μM inhibitors for 16 h. […] Signal was detected using the Becton Dickson LSRII flow cytometer and cell cycle profiles were analyzed with FloJo.

[1] = target: T2, His6-Skp2-Skp1-Cks1 complex (Homo sapiens, UniProt P61024+Q13309); experiment: Surface plasmon resonance (SPR); format: binding; settings: 1:1 interaction model; 25° C.
T2 construct: His6-tagged human Skp2 (residues 89-424); Human full-length Cks1 was produced as described; made in house
T2 sequence (Q13309 89-424 limits assumed): as the sequence (Q13309 89-424 limits assumed) above
T2 sequence (P61024 whole entry, the tested form may be a part): as the sequence (P61024 whole entry, the tested form may be a part) above

O=C(O)COc1ccc(Br)cc1C=C1SC(=S)N(Cc2cccnc2)C1=O [Compound C1] was tested, and the IC50 (ARP-1) was 3.84 µM, the “Shift of melting temperature (Tm) of purified protein complex” value (His-6Skp1-Skp2-Cks1) was “shifted the melting temperature” and the IC50 (KSM-11) was 1.84 µM. The “Rate of active cells” value (MCF-7) was “a lower rate of active cells”.
In the case of COC(=O)C1=C(C)N(c2ccc(Br)cc2)C(=O)C1=Cc1ccccc1O [Compound C2], the “Extension of p27 half-life over cycloheximide (CHX) control” value (p27 in ECC-1 cells) is reported as 6.1 h, the G1 cells (LNCaP) is reported as “a mild, but significant, increase in G1 cells” and the S phase cells (LNCaP) is reported as “a reduction in S phase cells”.
For O=C(O)COc1ccc(C=C2SC(=O)N(CC(=O)c3ccc(Cl)cc3)C2=O)cc1 [Compound C16], the p27 half-life (p27 in 501 Mel cells) was 3 h.
With O=C(NN=Cc1cc(Br)cc(Br)c1O)C(=Cc1ccccc1O)NC(=O)c1ccccc1 [Compound C20] the Kd [1] was 47 ± 14 µM, the p27 half-life (p27 in 501 Mel cells) was 5 h and the “Extension of p27 half-life over cycloheximide (CHX) control” value (p27 in ECC-1 cells) was 2.7 h.

Source: patent US9261497B2, “Method of treating cancer with modulators of SCFSkp2” (New York University, priority 2012, dated 2016)
